Measurements: paper PMC5622171 (Nature Communications, 2017)

What was measured:
Test in all cases: KINOMEscan kinase profiling
Type in all cases: binding
[1] = biological target: T1, ADCK4 (Homo sapiens, UniProt Q96D53); details: read-out: %Inhibition by 10 μM SPA70
T1 construct: purchased DiscoverX (Ambit Biosciences) KINOMEscan
Summary of the method: (§1)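 KINOMEscan profiling followed a published protocol. Kinases whose inhibition exceeded a set cut-off were then tested in a dilution series beginning at 30 µM.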

[2] = biological target: T2, ALK (Homo sapiens, UniProt Q9UM73); details: read-out: %Inhibition by 10 μM SPA70
T2 construct: purchased DiscoverX (Ambit Biosciences) KINOMEscan
Summary of the method: as §1

[3] = biological target: T3, BMX (Homo sapiens, UniProt P51813); details: read-out: %Inhibition by 10 μM SPA70
T3 construct: purchased DiscoverX (Ambit Biosciences) KINOMEscan
Summary of the method: as §1

[4] = biological target: T4, CTK (Homo sapiens, UniProt P42679); details: read-out: %Inhibition by 10 μM SPA70
T4 construct: purchased DiscoverX (Ambit Biosciences) KINOMEscan
Summary of the method: as §1

[5] = biological target: T5, DAPK2 (Homo sapiens, UniProt Q9UIK4); details: read-out: %Inhibition by 10 μM SPA70
T5 construct: purchased DiscoverX (Ambit Biosciences) KINOMEscan
Summary of the method: as §1

[6] = biological target: T6, EPHA2 (Homo sapiens, UniProt P29317); details: read-out: %Inhibition by 10 μM SPA70
T6 construct: purchased DiscoverX (Ambit Biosciences) KINOMEscan
Summary of the method: as §1

[7] = biological target: T7, EPHA8 (Homo sapiens, UniProt P29322); details: read-out: %Inhibition by 10 μM SPA70
T7 construct: purchased DiscoverX (Ambit Biosciences) KINOMEscan
Summary of the method: as §1

[8] = biological target: T8, ERK1 (Homo sapiens, UniProt P27361); details: read-out: %Inhibition by 10 μM SPA70
T8 construct: purchased DiscoverX (Ambit Biosciences) KINOMEscan
Summary of the method: as §1

[9] = biological target: T9, FYN (Homo sapiens, UniProt P06241); details: read-out: %Inhibition by 10 μM SPA70
T9 construct: purchased DiscoverX (Ambit Biosciences) KINOMEscan
Summary of the method: as §1

[10] = biological target: T10, GRK1 (Homo sapiens, UniProt Q15835); details: read-out: %Inhibition by 10 μM SPA70
T10 construct: purchased DiscoverX (Ambit Biosciences) KINOMEscan
Summary of the method: as §1

[11] = biological target: T11, HIPK1 (Homo sapiens, UniProt Q86Z02); details: read-out: %Inhibition by 10 μM SPA70
T11 construct: purchased DiscoverX (Ambit Biosciences) KINOMEscan
Summary of the method: as §1

[12] = biological target: T12, LIMK2 (Homo sapiens, UniProt P53671); details: read-out: %Inhibition by 10 μM SPA70
T12 construct: purchased DiscoverX (Ambit Biosciences) KINOMEscan
Summary of the method: as §1

[13] = biological target: T13, LYN (Homo sapiens, UniProt P07948); details: read-out: %Inhibition by 10 μM SPA70
T13 construct: purchased DiscoverX (Ambit Biosciences) KINOMEscan
Summary of the method: as §1

[14] = biological target: T14, MAK (Homo sapiens, UniProt P20794); details: read-out: %Inhibition by 10 μM SPA70
T14 construct: purchased DiscoverX (Ambit Biosciences) KINOMEscan
Summary of the method: as §1

[15] = biological target: T15, MAP4K5 (Homo sapiens, UniProt Q9Y4K4); details: read-out: %Inhibition by 10 μM SPA70
T15 construct: purchased DiscoverX (Ambit Biosciences) KINOMEscan
Summary of the method: as §1

[16] = biological target: T16, MAPKAPK2 (Homo sapiens, UniProt P49137); details: read-out: %Inhibition by 10 μM SPA70
T16 construct: purchased DiscoverX (Ambit Biosciences) KINOMEscan
Summary of the method: as §1

[17] = biological target: T17, MEK2 (Homo sapiens, UniProt P36507); details: read-out: %Inhibition by 10 μM SPA70
T17 construct: purchased DiscoverX (Ambit Biosciences) KINOMEscan
Summary of the method: as §1

[18] = biological target: T18, MEK5 (Homo sapiens, UniProt Q13163); details: read-out: %Inhibition by 10 μM SPA70
T18 construct: purchased DiscoverX (Ambit Biosciences) KINOMEscan
Summary of the method: as §1

[19] = biological target: T19, MKK7 (Homo sapiens, UniProt O14733)
T19 construct: purchased DiscoverX (Ambit Biosciences) KINOMEscan
Summary of the method: as §1

[20] = biological target: T20, NDR2 (Homo sapiens, UniProt Q9Y2H1); details: read-out: %Inhibition by 10 μM SPA70
T20 construct: purchased DiscoverX (Ambit Biosciences) KINOMEscan
Summary of the method: as §1

[21] = biological target: T21, NEK11 (Homo sapiens, UniProt Q8NG66); details: read-out: %Inhibition by 10 μM SPA70
T21 construct: purchased DiscoverX (Ambit Biosciences) KINOMEscan
Summary of the method: as §1

[22] = biological target: T22, NEK9 (Homo sapiens, UniProt Q8TD19); details: read-out: %Inhibition by 10 μM SPA70
T22 construct: purchased DiscoverX (Ambit Biosciences) KINOMEscan
Summary of the method: as §1

[23] = biological target: T23, PAK1 (Homo sapiens, UniProt Q13153); details: read-out: %Inhibition by 10 μM SPA70
T23 construct: purchased DiscoverX (Ambit Biosciences) KINOMEscan
Summary of the method: as §1

[24] = biological target: T24, PDGFRB (Homo sapiens, UniProt P09619); details: read-out: %Inhibition by 10 μM SPA70
T24 construct: purchased DiscoverX (Ambit Biosciences) KINOMEscan
Summary of the method: as §1

[25] = biological target: T25, PDPK1 (Homo sapiens, UniProt O15530); details: read-out: %Inhibition by 10 μM SPA70
T25 construct: purchased DiscoverX (Ambit Biosciences) KINOMEscan
Summary of the method: as §1

[26] = biological target: T26, PIP5K2B (Homo sapiens, UniProt P78356); details: read-out: %Inhibition by 10 μM SPA70
T26 construct: purchased DiscoverX (Ambit Biosciences) KINOMEscan
Summary of the method: as §1

[27] = biological target: T27, PLK4 (Homo sapiens, UniProt O00444); details: read-out: %Inhibition by 10 μM SPA70
T27 construct: purchased DiscoverX (Ambit Biosciences) KINOMEscan
Summary of the method: as §1

[28] = biological target: T28, RAF1 (Homo sapiens, UniProt P04049); details: read-out: %Inhibition by 10 μM SPA70
T28 construct: purchased DiscoverX (Ambit Biosciences) KINOMEscan
Summary of the method: as §1

[29] = biological target: T29, RIOK3 (Homo sapiens, UniProt O14730); details: read-out: %Inhibition by 10 μM SPA70
T29 construct: purchased DiscoverX (Ambit Biosciences) KINOMEscan
Summary of the method: as §1

[30] = biological target: T30, RIPK2 (Homo sapiens, UniProt O43353); details: read-out: %Inhibition by 10 μM SPA70
T30 construct: purchased DiscoverX (Ambit Biosciences) KINOMEscan
Summary of the method: as §1

[31] = biological target: T31, RPS6KA4(Kin.Dom.1-N-terminal) (Homo sapiens, UniProt O75676); details: read-out: %Inhibition by 10 μM SPA70
T31 construct: RPS6KA4(Kin.Dom.1-N-terminal); purchased DiscoverX (Ambit Biosciences) KINOMEscan
Summary of the method: as §1

[32] = biological target: T32, SBK1 (Homo sapiens, UniProt Q52WX2); details: read-out: %Inhibition by 10 μM SPA70
T32 construct: purchased DiscoverX (Ambit Biosciences) KINOMEscan
Summary of the method: as §1

[33] = biological target: T33, SRC (Homo sapiens, UniProt P12931); details: read-out: %Inhibition by 10 μM SPA70
T33 construct: purchased DiscoverX (Ambit Biosciences) KINOMEscan
Summary of the method: as §1

[34] = biological target: T34, SRPK2 (Homo sapiens, UniProt P78362); details: read-out: %Inhibition by 10 μM SPA70
T34 construct: purchased DiscoverX (Ambit Biosciences) KINOMEscan
Summary of the method: as §1

[35] = biological target: T35, SRPK3 (Homo sapiens, UniProt Q9UPE1); details: read-out: %Inhibition by 10 μM SPA70
T35 construct: purchased DiscoverX (Ambit Biosciences) KINOMEscan
Summary of the method: as §1

[36] = biological target: T36, STK36 (Homo sapiens, UniProt Q9NRP7); details: read-out: %Inhibition by 10 μM SPA70
T36 construct: purchased DiscoverX (Ambit Biosciences) KINOMEscan
Summary of the method: as §1

[37] = biological target: T37, TAK1 (Homo sapiens, UniProt O43318); details: read-out: %Inhibition by 10 μM SPA70
T37 construct: purchased DiscoverX (Ambit Biosciences) KINOMEscan
Summary of the method: as §1

[38] = biological target: T38, TIE1 (Homo sapiens, UniProt P35590); details: read-out: %Inhibition by 10 μM SPA70
T38 construct: purchased DiscoverX (Ambit Biosciences) KINOMEscan
Summary of the method: as §1

[39] = biological target: T39, TNK2 (Homo sapiens, UniProt Q07912); details: read-out: %Inhibition by 10 μM SPA70
T39 construct: purchased DiscoverX (Ambit Biosciences) KINOMEscan
Summary of the method: as §1

[40] = biological target: T40, TRKA (Homo sapiens, UniProt P04629); details: read-out: %Inhibition by 10 μM SPA70
T40 construct: purchased DiscoverX (Ambit Biosciences) KINOMEscan
Summary of the method: as §1

[41] = biological target: T41, p38-alpha (Homo sapiens, UniProt Q16539)
T41 construct: purchased DiscoverX (Ambit Biosciences) KINOMEscan
Summary of the method: as §1

[42] = biological target: T42, p38-gamma (Homo sapiens, UniProt P53778); details: read-out: %Inhibition by 10 μM SPA70
T42 construct: purchased DiscoverX (Ambit Biosciences) KINOMEscan
Summary of the method: as §1

T18 sequence (Q13163 whole entry): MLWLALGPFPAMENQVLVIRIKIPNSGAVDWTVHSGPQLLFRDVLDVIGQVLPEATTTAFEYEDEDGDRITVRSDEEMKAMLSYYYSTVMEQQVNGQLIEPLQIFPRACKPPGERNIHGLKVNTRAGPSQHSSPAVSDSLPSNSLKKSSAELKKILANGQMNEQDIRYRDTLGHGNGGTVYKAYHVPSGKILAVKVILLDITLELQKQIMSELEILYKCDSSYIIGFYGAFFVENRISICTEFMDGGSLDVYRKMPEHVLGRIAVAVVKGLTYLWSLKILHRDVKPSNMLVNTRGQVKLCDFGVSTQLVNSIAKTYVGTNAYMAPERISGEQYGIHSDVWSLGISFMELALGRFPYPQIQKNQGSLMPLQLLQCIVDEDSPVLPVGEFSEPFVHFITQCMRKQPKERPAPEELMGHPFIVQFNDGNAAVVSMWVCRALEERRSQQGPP
T32 sequence (Q52WX2 whole entry): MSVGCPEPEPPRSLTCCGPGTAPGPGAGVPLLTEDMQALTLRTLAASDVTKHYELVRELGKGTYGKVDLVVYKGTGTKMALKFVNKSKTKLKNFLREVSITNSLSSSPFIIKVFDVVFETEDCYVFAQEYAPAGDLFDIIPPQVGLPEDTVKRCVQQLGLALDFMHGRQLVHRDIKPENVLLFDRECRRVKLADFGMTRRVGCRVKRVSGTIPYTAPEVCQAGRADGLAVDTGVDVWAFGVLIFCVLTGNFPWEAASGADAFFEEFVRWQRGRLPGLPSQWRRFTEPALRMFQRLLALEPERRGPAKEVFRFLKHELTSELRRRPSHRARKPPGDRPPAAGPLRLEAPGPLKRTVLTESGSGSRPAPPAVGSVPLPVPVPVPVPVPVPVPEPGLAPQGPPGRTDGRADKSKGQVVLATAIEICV
T14 sequence (P20794 whole entry): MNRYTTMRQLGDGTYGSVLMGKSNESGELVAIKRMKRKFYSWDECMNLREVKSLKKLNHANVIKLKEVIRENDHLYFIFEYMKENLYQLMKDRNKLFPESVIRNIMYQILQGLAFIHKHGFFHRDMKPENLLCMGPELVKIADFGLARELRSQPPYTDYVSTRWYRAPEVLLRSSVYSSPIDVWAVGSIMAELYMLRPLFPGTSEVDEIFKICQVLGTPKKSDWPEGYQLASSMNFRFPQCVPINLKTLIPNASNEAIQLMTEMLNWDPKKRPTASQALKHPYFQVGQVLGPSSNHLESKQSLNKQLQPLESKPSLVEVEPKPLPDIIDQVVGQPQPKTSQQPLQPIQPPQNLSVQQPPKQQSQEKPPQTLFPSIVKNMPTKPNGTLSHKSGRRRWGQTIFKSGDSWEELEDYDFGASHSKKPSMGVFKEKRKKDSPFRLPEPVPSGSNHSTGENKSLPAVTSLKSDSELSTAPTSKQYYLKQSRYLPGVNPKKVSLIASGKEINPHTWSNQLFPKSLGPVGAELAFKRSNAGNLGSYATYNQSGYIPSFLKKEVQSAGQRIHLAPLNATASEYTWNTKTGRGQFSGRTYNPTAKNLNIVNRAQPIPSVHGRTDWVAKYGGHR
T24 sequence (P09619 33-1106): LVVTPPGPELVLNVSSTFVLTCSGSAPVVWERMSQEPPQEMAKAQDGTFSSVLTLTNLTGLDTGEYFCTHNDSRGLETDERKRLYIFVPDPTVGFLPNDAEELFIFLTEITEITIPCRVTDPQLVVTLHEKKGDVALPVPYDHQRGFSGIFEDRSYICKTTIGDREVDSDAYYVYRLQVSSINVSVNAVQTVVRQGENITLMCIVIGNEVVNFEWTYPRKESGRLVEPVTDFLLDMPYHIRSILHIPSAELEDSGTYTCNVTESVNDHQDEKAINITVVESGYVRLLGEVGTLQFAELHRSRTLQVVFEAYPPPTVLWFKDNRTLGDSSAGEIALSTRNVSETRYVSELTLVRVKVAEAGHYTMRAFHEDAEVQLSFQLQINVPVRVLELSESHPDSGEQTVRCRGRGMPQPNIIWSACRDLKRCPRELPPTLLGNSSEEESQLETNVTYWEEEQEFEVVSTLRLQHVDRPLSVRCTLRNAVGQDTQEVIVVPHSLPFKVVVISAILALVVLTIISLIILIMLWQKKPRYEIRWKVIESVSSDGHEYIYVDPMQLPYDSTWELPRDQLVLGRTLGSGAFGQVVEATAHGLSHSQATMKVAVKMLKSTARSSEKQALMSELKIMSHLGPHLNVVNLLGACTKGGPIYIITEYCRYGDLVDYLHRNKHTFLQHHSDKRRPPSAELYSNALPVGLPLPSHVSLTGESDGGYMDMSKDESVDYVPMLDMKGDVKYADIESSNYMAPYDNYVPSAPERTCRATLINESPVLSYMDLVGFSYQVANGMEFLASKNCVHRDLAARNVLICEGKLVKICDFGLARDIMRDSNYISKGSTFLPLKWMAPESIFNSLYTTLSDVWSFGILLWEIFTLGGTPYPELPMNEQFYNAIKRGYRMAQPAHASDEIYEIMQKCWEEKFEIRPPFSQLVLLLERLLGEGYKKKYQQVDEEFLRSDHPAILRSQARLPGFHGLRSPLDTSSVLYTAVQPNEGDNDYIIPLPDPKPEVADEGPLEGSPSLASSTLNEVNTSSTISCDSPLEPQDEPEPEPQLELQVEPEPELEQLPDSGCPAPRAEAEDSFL
T27 sequence (O00444 whole entry): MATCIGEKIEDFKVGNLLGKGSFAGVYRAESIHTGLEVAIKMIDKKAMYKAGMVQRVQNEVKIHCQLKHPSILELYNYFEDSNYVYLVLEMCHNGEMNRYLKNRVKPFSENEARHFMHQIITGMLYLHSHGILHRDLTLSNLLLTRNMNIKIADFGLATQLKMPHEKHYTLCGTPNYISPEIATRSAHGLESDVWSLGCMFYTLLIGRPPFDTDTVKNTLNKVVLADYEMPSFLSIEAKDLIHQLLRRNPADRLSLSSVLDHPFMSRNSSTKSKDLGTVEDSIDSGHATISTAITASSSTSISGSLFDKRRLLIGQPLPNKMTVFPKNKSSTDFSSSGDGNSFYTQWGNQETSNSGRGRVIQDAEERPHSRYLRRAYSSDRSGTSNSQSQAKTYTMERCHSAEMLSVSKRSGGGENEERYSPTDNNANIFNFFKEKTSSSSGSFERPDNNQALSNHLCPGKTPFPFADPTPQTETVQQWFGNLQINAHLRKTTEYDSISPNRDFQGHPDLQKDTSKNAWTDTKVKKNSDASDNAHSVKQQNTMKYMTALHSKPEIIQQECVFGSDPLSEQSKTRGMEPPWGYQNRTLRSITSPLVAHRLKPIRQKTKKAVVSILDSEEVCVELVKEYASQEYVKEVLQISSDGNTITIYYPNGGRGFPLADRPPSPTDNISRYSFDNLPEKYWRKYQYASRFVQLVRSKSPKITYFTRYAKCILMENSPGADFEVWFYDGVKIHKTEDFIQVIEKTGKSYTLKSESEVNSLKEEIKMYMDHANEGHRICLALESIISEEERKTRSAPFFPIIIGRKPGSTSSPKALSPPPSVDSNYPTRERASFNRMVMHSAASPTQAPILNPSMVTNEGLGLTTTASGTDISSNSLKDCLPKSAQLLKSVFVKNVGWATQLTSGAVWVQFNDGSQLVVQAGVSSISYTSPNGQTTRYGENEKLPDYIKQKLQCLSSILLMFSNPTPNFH
T25 sequence (O15530 whole entry): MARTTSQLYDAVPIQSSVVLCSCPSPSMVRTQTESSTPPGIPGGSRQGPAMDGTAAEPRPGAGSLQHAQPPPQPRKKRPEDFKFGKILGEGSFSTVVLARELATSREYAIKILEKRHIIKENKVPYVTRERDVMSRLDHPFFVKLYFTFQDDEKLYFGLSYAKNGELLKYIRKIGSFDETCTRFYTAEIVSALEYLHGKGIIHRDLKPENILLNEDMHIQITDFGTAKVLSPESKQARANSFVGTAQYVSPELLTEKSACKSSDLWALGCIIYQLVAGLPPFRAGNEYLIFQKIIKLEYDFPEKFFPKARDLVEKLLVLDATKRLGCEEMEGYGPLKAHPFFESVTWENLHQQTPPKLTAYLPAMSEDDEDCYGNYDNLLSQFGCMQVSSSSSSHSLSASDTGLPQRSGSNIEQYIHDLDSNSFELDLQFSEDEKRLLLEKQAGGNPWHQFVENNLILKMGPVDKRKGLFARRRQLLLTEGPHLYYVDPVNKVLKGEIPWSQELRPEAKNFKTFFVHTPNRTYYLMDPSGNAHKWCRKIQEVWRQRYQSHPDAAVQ
T12 sequence (P53671 whole entry): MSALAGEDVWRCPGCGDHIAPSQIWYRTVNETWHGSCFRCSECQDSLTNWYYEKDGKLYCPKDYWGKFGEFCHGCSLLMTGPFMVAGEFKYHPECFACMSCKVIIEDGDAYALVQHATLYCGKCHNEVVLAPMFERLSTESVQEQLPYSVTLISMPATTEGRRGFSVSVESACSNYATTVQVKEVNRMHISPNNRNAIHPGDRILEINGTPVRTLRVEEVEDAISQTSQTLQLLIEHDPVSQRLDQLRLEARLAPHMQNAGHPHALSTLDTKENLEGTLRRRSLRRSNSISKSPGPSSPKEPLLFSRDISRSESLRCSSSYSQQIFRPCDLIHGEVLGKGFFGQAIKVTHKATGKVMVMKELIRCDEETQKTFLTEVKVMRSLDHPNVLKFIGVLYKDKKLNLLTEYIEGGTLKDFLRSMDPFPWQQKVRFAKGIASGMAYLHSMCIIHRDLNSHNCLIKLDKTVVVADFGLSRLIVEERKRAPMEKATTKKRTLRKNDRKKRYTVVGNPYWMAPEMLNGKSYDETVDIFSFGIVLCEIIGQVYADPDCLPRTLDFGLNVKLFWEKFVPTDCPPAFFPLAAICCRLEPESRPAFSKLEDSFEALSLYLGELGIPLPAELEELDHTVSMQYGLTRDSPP

In the case of `COc1ccc(OC)c(-n2nnc(S(=O)(=O)c3ccc(C(C)(C)C)cc3)c2C)c1` [SPA70], the inhibition at 10 µM [1] is reported as 16%, the inhibition at 10 µM [2] is reported as 0% and the inhibition at 10 µM [3] is reported as 0%. The inhibition at 10 µM [4] was 6%, the inhibition at 10 µM [5] was 0% and the inhibition at 10 µM [6] was 0%. For the same molecule, the inhibition at 10 µM [7] was 13%, the inhibition at 10 µM [8] was 0% and the inhibition at 10 µM [9] was 0%. The inhibition at 10 µM [10] was 0%, the inhibition at 10 µM [11] was 32% and the inhibition at 10 µM [12] was 2%. It also gave an inhibition at 10 µM [13] of 0%, an inhibition at 10 µM [14] of 13% and an inhibition at 10 µM [15] of 0%. The inhibition at 10 µM [16] was 20%, the inhibition at 10 µM [17] was 4% and the inhibition at 10 µM [18] was 8%. For the same molecule, the “%Inhibition by 10 μM SPA70” value [19] was 0%, the inhibition at 10 µM [20] was 0% and the inhibition at 10 µM [21] was 34%. It also gave an inhibition at 10 µM [22] of 0%, an inhibition at 10 µM [23] of 0% and an inhibition at 10 µM [24] of 46%. It also gave an inhibition at 10 µM [25] of 0%, an inhibition at 10 µM [26] of 0% and an inhibition at 10 µM [27] of 9%. For the same molecule, the inhibition at 10 µM [28] was 19%, the inhibition at 10 µM [29] was 24% and the inhibition at 10 µM [30] was 0%. For the same molecule, the inhibition at 10 µM [31] was 0%, the inhibition at 10 µM [32] was 0% and the inhibition at 10 µM [33] was 0%. For the same molecule, the inhibition at 10 µM [34] was 0%, the inhibition at 10 µM [35] was 0% and the inhibition at 10 µM [36] was 0%. The inhibition at 10 µM [37] was 0%, the inhibition at 10 µM [38] was 0% and the inhibition at 10 µM [39] was 0%. For the same molecule, the inhibition at 10 µM [40] was 0%, the “%Inhibition by 10 μM SPA70” value [41] was 0% and the inhibition at 10 µM [42] was 8%.
